This note sets out measurements from publication PMC5272797 (Biochemical pharmacology, 2016).

pIC50: −log10 of the molar value.

What is called inhibition is the percentage by which the read-out fell short of the control. One may read the pIC50 as the IC50 on a negative log10 scale, so that one unit is a factor of ten. Read a low pIC50 as a high IC50.

Type in all cases: biochemical
One test has as its target EGFR L861Q (Homo sapiens, UniProt P00533, L861Q). Put plainly: Z'-LYTE Tyr4 peptide kinase assay, single dose […]. To be noted: read-out: Mean inhibition at 10 μM (%).
The next test has as its target EGFR (ErbB1) (Homo sapiens, UniProt P00533). Nature of the test: Z'-LYTE Tyr4 peptide kinase assay, 10-point dose-response.
The next test deals with EGFR T790M (Homo sapiens, UniProt P00533, T790M). Nature of the test: Z'-LYTE Tyr4 peptide kinase assay, single dose […]. To be noted: read-out: Mean inhibition at 10 μM (%).
The next test deals with EGFR L858R (Homo sapiens, UniProt P00533, L858R). Put plainly: Z'-LYTE Tyr4 peptide kinase assay, single dose […]. To be noted: read-out: Mean inhibition at 10 μM (%).
EGFR L858R, sequence (P00533 668-1210 L858R limits assumed): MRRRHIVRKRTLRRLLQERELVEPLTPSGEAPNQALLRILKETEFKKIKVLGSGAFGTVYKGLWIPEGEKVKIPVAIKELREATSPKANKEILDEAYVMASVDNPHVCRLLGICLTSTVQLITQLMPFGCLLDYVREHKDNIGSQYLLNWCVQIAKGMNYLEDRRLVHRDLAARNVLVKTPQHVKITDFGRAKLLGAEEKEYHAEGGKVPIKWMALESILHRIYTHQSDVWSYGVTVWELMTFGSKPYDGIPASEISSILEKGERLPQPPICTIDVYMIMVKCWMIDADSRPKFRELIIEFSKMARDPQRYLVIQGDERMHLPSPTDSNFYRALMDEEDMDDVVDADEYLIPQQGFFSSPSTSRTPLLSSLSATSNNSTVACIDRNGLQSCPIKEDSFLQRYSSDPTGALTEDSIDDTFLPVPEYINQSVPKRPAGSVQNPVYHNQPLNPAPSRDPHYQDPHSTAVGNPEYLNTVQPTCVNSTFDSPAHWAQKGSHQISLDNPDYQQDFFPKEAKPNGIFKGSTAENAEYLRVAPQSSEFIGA

EGFR (ErbB1), sequence (P00533 668-1210): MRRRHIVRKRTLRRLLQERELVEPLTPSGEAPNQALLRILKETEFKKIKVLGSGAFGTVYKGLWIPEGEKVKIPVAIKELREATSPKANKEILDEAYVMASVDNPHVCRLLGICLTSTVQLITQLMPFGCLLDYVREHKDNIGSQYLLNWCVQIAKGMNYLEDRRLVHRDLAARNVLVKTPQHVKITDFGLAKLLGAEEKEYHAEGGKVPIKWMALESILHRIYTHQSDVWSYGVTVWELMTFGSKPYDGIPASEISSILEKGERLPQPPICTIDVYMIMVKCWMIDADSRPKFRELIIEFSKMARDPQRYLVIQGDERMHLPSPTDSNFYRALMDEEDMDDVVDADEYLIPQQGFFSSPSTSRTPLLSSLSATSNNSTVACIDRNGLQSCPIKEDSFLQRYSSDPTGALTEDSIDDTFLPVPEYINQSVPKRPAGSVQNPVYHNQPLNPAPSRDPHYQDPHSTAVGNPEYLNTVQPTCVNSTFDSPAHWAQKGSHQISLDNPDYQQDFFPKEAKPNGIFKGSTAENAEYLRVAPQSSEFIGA
EGFR L861Q, sequence (P00533 668-1210 L861Q limits assumed): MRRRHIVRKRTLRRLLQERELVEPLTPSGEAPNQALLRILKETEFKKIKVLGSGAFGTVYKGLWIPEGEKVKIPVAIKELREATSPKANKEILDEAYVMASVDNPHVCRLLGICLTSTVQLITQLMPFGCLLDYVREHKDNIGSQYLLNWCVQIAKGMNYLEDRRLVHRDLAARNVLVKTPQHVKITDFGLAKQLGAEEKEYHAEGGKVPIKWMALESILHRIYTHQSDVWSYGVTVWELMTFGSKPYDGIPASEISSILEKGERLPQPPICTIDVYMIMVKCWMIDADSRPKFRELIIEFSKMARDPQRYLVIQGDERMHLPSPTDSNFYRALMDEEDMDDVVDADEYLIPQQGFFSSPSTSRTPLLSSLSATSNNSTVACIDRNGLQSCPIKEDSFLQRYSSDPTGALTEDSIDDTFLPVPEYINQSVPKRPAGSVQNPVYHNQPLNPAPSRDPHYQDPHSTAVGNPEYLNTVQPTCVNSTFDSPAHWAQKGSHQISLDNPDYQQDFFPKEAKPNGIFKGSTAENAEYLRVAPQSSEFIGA
EGFR T790M, sequence (P00533 668-1210 T790M limits assumed): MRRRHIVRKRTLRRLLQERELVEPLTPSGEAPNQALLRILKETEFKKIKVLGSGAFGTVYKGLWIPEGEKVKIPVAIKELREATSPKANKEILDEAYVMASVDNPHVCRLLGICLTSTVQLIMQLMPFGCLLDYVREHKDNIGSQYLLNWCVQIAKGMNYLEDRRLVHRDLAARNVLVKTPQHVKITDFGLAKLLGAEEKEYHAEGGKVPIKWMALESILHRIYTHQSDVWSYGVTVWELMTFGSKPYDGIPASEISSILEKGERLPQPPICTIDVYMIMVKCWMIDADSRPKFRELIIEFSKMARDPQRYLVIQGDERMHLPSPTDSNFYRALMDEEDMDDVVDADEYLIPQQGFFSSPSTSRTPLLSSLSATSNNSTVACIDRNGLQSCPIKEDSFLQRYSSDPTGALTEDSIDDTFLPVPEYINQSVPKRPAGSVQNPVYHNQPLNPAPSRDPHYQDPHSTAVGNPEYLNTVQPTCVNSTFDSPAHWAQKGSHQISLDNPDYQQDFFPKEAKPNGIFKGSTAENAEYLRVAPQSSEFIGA

In the case of `CCCC(=O)O[C@]1(C)CC[C@H](C(C)C)[C@@H]2[C@H]1[C@H]1C[C@](C)(O)[C@@H](O)CC[C@@](C)(OC(C)=O)[C@@H]2O1` [compound 1, Pachycladin A], the inhibition at 10 µM at EGFR L861Q was 93%; on EGFR T790M, 93%; at EGFR L858R, 98%. Also, the negative-log IC50 (pIC50) at EGFR (ErbB1) is 6.24.
